# Test results reported in patent US20220169632A1, “METHODS AND MATERIALS FOR INCREASING OR MAINTAINING NICOTINAMIDE MONONUCLEOTIDE ADENYLYL TRANSFERASE-2 (NMNAT2) POLYPEPTIDE LEVELS” (University of Pittsburgh - Of the Commonwealth System of …, priority 2019, published 2022).
# Test system: NMNAT2
# Experiment: NMNAT2-Hibit nano-luciferase activity in stably transfected U87MG cells, various concentrations, 24 hours
# Assay type: cell-based
# Settings: U87MG cells stably transfected with NMNAT2-Hibit luc plasmid
# Procedure: Selected compounds were tested in vitro. U87MG cells were stably transfected with NMNAT2-Hibit luc plasmid. Cells were treated with a test compound at various concentrations for 24 hours. Cells were then collected and assayed for nano-luciferase activity.
row,Structure (SMILES),E: compound efficacy for NMNAT2 activation (concentration giving >25% increase in NMNAT2 luciferase activity)
1,Cc1ccc(C)c(Cn2c3c(c4ccccc42)CC(C(=O)NCCc2ccccc2)CC3)c1 (centres unmarked) [BC20218],+ (“+” >25% increase in NMNAT2 luciferase activity at >25 μM.)
2,CCCCN(CC)Cc1ccc(CNC(=O)C2CCc3c(c4ccccc4n3Cc3cc(C)ccc3C)C2)o1 (centres unmarked) [BC20219],++ (“++” >25% increase in NMNAT2 luciferase activity at >1 μM ≤25 μM.)
3,O=C(NCc1ccco1)C1CCc2c(c3ccccc3n2Cc2cccc(F)c2)C1 (centres unmarked) [BC20220],++ (“++” >25% increase in NMNAT2 luciferase activity at >1 μM ≤25 μM.)
4,Cc1ccc(CNC(=O)C2CCc3c(c4ccccc4n3Cc3cccc(F)c3)C2)o1 (centres unmarked) [BC20221],+ (“+” >25% increase in NMNAT2 luciferase activity at >25 μM.)
5,O=C(NCc1cccc(F)c1)C1CCc2c(c3ccccc3n2Cc2cccc(F)c2)C1 (centres unmarked) [BC20222],+ (“+” >25% increase in NMNAT2 luciferase activity at >25 μM.)
6,Cc1ccccc1CNC(=O)C1CCc2c(c3ccccc3n2Cc2cccc(F)c2)C1 (centres unmarked) [BC20223],+ (“+” >25% increase in NMNAT2 luciferase activity at >25 μM.)
7,Cc1cccc(CNC(=O)C2CCc3c(c4ccccc4n3Cc3cccc(F)c3)C2)c1 (centres unmarked) [BC20224],+ (“+” >25% increase in NMNAT2 luciferase activity at >25 μM.)
8,COc1ccccc1CNC(=O)C1CCc2c(c3ccccc3n2Cc2cccc(F)c2)C1 (centres unmarked) [BC20225],+ (“+” >25% increase in NMNAT2 luciferase activity at >25 μM.)
9,COc1cccc(CNC(=O)C2CCc3c(c4ccccc4n3Cc3cccc(F)c3)C2)c1 (centres unmarked) [BC20226],+ (“+” >25% increase in NMNAT2 luciferase activity at >25 μM.)
10,O=C(NCCc1ccccc1)C1CCc2c(c3ccccc3n2Cc2cccc(F)c2)C1 (centres unmarked) [BC20227],++ (“++” >25% increase in NMNAT2 luciferase activity at >1 μM ≤25 μM.)
11,O=C(NCc1ccncc1)C1CCc2c(c3ccccc3n2Cc2cccc(F)c2)C1 (centres unmarked) [BC20228],++ (“++” >25% increase in NMNAT2 luciferase activity at >1 μM ≤25 μM.)
12,Cc1cccc(NC(=O)C2CCc3c(c4ccccc4n3Cc3cccc(F)c3)C2)c1C (centres unmarked) [BC20229],+ (“+” >25% increase in NMNAT2 luciferase activity at >25 μM.)
13,Cc1ccc(Cn2cc(C3CCN(Cc4ccccc4F)C(=O)C3)c3ccccc32)cc1 (centres unmarked) [BC20230],++ (“++” >25% increase in NMNAT2 luciferase activity at >1 μM ≤25 μM.)
14,Cc1ccc(Cn2cc(C3CCN(Cc4cccc(F)c4)C(=O)C3)c3ccccc32)cc1 (centres unmarked) [BC20231],++ (“++” >25% increase in NMNAT2 luciferase activity at >1 μM ≤25 μM.)
15,Cc1ccc(Cn2cc(C3CCN(Cc4ccccc4C)C(=O)C3)c3ccccc32)cc1 (centres unmarked) [BC20232],+ (“+” >25% increase in NMNAT2 luciferase activity at >25 μM.)
16,Cc1ccc(Cn2cc(C3CCN(Cc4cccc(C)c4)C(=O)C3)c3ccccc32)cc1 (centres unmarked) [BC20233],++ (“++” >25% increase in NMNAT2 luciferase activity at >1 μM ≤25 μM.)
17,CCOC(=O)Cn1cc(C2=CC(=O)NCC2)c2ccccc21 [BC20234],++ (“++” >25% increase in NMNAT2 luciferase activity at >1 μM ≤25 μM.)
18,CCOC(=O)Cn1cc(C2CCNC(=O)C2)c2ccccc21 (centres unmarked) [BC20235],++ (“++” >25% increase in NMNAT2 luciferase activity at >1 μM ≤25 μM.)
19,Cc1ccc(CNC(=O)C2CCc3c(c4ccccc4n3CC(=O)NCc3ccco3)C2)o1 (centres unmarked) [BC20236],++ (“++” >25% increase in NMNAT2 luciferase activity at >1 μM ≤25 μM.)
20,O=C(Cn1c2c(c3ccccc31)CC(C(=O)NCC1CCCO1)CC2)NCc1ccco1 (centres unmarked) [BC20237],++ (“++” >25% increase in NMNAT2 luciferase activity at >1 μM ≤25 μM.)
21,Cc1ccccc1CNC(=O)C1CCc2c(c3ccccc3n2CC(=O)NCc2ccco2)C1 (centres unmarked) [BC20238],++ (“++” >25% increase in NMNAT2 luciferase activity at >1 μM ≤25 μM.)
22,Cc1cccc(CNC(=O)C2CCc3c(c4ccccc4n3CC(=O)NCc3ccco3)C2)c1 (centres unmarked) [BC20239],++ (“++” >25% increase in NMNAT2 luciferase activity at >1 μM ≤25 μM.)

row,Structure (SMILES),E: compound efficacy for NMNAT2 activation (concentration giving >25% increase in NMNAT2 luciferase activity)
1,COc1ccccc1CNC(=O)C1CCc2c(c3ccccc3n2CC(=O)NCc2ccco2)C1 (centres unmarked) [BC20240],++ (“++” >25% increase in NMNAT2 luciferase activity at >1 μM ≤25 μM.)
2,COc1cccc(CNC(=O)C2CCc3c(c4ccccc4n3CC(=O)NCc3ccco3)C2)c1 (centres unmarked) [BC20241],++ (“++” >25% increase in NMNAT2 luciferase activity at >1 μM ≤25 μM.)
3,O=C(Cn1c2c(c3ccccc31)CC(C(=O)NCc1cccnc1)CC2)NCc1ccco1 (centres unmarked) [BC20242],+ (“+” >25% increase in NMNAT2 luciferase activity at >25 μM.)
4,Cc1ccc(C)c(Cn2c3c(c4ccccc42)CN(C(=O)NCc2ccco2)CC3)c1 [BC20243],+++ (“+++” >25% increase in NMNAT2 luciferase activity at ≤1 μM.)
5,Cc1c(C)n(Cc2ccccc2F)c2ccc(C(=O)NC(C)Cc3ccco3)cc12 (centres unmarked) [BC20244],+ (“+” >25% increase in NMNAT2 luciferase activity at >25 μM.)
6,Cc1c(C)n(Cc2ccccc2F)c2ccc(C(=O)NCCc3ccccc3)cc12 [BC20245],++ (“++” >25% increase in NMNAT2 luciferase activity at >1 μM ≤25 μM.)
7,Cc1cccc(NC(=O)c2ccc3c(c2)c(C)c(C)n3Cc2ccccc2F)c1C [BC20246],++ (“++” >25% increase in NMNAT2 luciferase activity at >1 μM ≤25 μM.)
8,Cc1c(C)n(Cc2ccccc2F)c2ccc(C(=O)N3CCc4occc4C3)cc12 [BC20247],+ (“+” >25% increase in NMNAT2 luciferase activity at >25 μM.)
9,Cc1c(C)n(Cc2cccc(F)c2)c2ccc(C(=O)NCCc3ccccc3)cc12 [BC20248],++ (“++” >25% increase in NMNAT2 luciferase activity at >1 μM ≤25 μM.)
10,Cc1cccc(NC(=O)c2ccc3c(c2)c(C)c(C)n3Cc2cccc(F)c2)c1C [BC20249],+++ (“+++” >25% increase in NMNAT2 luciferase activity at ≤1 μM.)
11,Cc1c(C)n(Cc2cccc(F)c2)c2ccc(C(=O)N3CCc4occc4C3)cc12 [BC20250],++ (“++” >25% increase in NMNAT2 luciferase activity at >1 μM ≤25 μM.)
12,Cc1ccccc1Cn1c(C)c(C)c2cc(C(=O)NCCc3ccccc3)ccc21 [BC20251],++ (“++” >25% increase in NMNAT2 luciferase activity at >1 μM ≤25 μM.)
13,Cc1ccc(C)c(Cn2c3c(c4ccccc42)CN(C(=O)NCC2CCCO2)CC3)c1 (centres unmarked) [BC20252],+ (“+” >25% increase in NMNAT2 luciferase activity at >25 μM.)
14,Cc1ccc(C)c(Cn2c3c(c4ccccc42)CN(C(=O)NCc2cccc(F)c2)CC3)c1 [BC20253],+ (“+” >25% increase in NMNAT2 luciferase activity at >25 μM.)
15,Cc1ccc(C)c(Cn2c3c(c4ccccc42)CN(C(=O)NCCc2ccccc2)CC3)c1 [BC20254],++ (“++” >25% increase in NMNAT2 luciferase activity at >1 μM ≤25 μM.)
16,Cc1ccc(C)c(Cn2c3c(c4ccccc42)CN(C(=O)Nc2cccc(C)c2C)CC3)c1 [BC20255],+ (“+” >25% increase in NMNAT2 luciferase activity at >25 μM.)
17,O=C(NCc1ccccc1F)C1CCc2c(c3ccccc3n2Cc2cccc(F)c2)C1 (centres unmarked) [BC20256],+ (“+” >25% increase in NMNAT2 luciferase activity at >25 μM.)
18,O=C(c1ccco1)N1CCN(C(=O)C2CCc3c(c4ccccc4n3Cc3cccc(F)c3)C2)CC1 (centres unmarked) [BC20257],+ (“+” >25% increase in NMNAT2 luciferase activity at >25 μM.)
19,O=C(NCc1cccnc1)C1CCc2c(c3ccccc3n2Cc2cccc(F)c2)C1 (centres unmarked) [BC20258],++ (“++” >25% increase in NMNAT2 luciferase activity at >1 μM ≤25 μM.)
20,CCCCN(CC)Cc1ccc(CNC(=O)C2CCc3c(c4ccccc4n3Cc3cccc(F)c3)C2)o1 (centres unmarked) [BC20259],+++ (“+++” >25% increase in NMNAT2 luciferase activity at ≤1 μM.)
21,O=C(C1CCc2c(c3ccccc3n2Cc2cccc(F)c2)C1)N1CCc2occc2C1 (centres unmarked) [BC20260],++ (“++” >25% increase in NMNAT2 luciferase activity at >1 μM ≤25 μM.)
22,Cc1cccc(CN2CCc3cn(Cc4cc(C)ccc4C)c4cccc(c34)C2=O)c1 [BC20261],+ (“+” >25% increase in NMNAT2 luciferase activity at >25 μM.)
